Experimental data published in US9580390B2, “Indazole compounds as kinase inhibitors and method of treating cancer with same” (University Health Network, priority 2011, dated 2017).

How the values were obtained:
human TTK = target: T1, human TTK (Homo sapiens, UniProt P33981); test: TTK inhibition assay (indirect ELISA); assay type: biochemical; conditions: read-out: TTK IC50 Range
T1 construct: amino terminal GST fusion of full length human TTK; purchased Invitrogen
T1 sequence (P33981 1-857): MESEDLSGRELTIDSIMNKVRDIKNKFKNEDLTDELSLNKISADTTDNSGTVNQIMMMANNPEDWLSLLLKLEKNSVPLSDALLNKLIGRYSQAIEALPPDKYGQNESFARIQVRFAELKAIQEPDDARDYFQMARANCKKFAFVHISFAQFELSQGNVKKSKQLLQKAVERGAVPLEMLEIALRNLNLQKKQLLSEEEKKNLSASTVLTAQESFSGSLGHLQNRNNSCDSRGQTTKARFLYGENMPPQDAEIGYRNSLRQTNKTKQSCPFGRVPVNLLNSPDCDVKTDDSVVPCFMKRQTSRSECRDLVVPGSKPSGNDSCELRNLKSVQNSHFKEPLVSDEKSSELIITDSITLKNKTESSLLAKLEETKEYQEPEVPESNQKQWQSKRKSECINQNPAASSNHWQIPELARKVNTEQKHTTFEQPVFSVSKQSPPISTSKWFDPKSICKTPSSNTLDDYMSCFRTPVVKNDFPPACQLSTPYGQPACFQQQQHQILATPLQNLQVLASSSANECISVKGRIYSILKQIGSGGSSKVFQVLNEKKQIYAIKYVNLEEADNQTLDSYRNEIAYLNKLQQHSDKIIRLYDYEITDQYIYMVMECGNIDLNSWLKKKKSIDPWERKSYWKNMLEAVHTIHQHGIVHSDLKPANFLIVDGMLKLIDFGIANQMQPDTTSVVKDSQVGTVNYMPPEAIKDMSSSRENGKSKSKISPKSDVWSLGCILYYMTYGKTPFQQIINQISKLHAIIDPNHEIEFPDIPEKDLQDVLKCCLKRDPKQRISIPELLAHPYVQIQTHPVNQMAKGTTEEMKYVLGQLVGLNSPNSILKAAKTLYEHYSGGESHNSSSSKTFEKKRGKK

Breast cancer cells = test: Cancer cell line growth inhibition (SRB assay); assay type: cell-based; conditions: Homo sapiens; MDA-MB-468; read-out: Cancer Cell Line GI50 Range MDA-MB-468
[1] = test system: colon cancer cells (HCT116); test: Cancer cell line growth inhibition (SRB assay); assay type: cell-based; conditions: Homo sapiens, HCT-116; read-out: Cancer Cell Line GI50 Range HCT116
[2] = test system: ovarian cancer cells (PA-1); test: Cancer cell line growth inhibition (SRB assay); assay type: cell-based; conditions: Homo sapiens, PA-1; read-out: Cancer Cell Line GI50 Range PA-1
TICs (Colon 12) = test: Colon tumor-initiating cell growth inhibition (Alamar Blue); assay type: cell-based; conditions: 216 h; Colon 12 TICs, 9 days; read-out: Tumor Initiating Cell GI50 Range Colon 12
TICs (Ovarian 2393A) = test: Ovarian tumor-initiating cell growth inhibition (Alamar Blue); assay type: cell-based; conditions: 144 h; Ovarian 2393A TICs, 6 days; read-out: Tumor Initiating Cell GI50 Range Ovarain 2393A
Description: Materials and Methods: Non-tissue or tissue cultured treated T-75 flask and 96-well plates were purchased from VWR. Vitamin B-27 supplement, MEM NEAA (minimum essential medium non essential amino acids), sodium pyruvate, L-glutamine, N2 supplement, penicillin-streptomycin and fungizone/amphotericin B were obtained from Invitrogen. Lipid mixture, heparin and EGF were purchased from Sigma; bFGF from BD Biosciences. Tumor Initiating Cells (TICs) from colon were routinely maintained using non-tissue cultured treated T-75 flasks in DMEM:F12 medium containing 0.2×B-27 supplement, 4 ug/ml heparin, 1×MEM NEAA, 1× sodium pyruvate, 1 mM glutamine, 10 pg/ul bFGF, 20 pg/ul EGF, 1×N2 supplement, lipid mixture, penicillin-streptomycin and fungizone/amphotericin B. Ovarian TICs were routinely maintained using tissue cultured treated T-75 flasks in DMEM:F12 medium containing 1×B-27 supplement, 4 ug/ml heparin, 20 pg/ul bFGF, 20 pg/ul EGF and penicillin-streptomycin.
Assay Protocol: Compounds described herein were dissolved in DMSO and further diluted in cell culture medium for GI50 determination. Colon TICs were trypsinized and seeded into non-tissue cultured treated 96-well plates with 4,000 cells/well. After 24 h, compound was added into the cell culture at different concentrations, and the final concentration of DMSO was adjusted to 0.1%. Cells were then cultured at 37° C. for 9 days. Ovarian TICs were trypsinized and seeded into tissue cultured treated 96-well plates with 1,000 cells/well. After 24 h, compound was added into the cell culture at different concentrations, and the final concentration of DMSO was adjusted to 0.1%. Cells were then cultured at 37° C. for 6 days. Cell viability was assessed by Alamar Blue assay: 10 ul of Alamar Blue was added into each well. After 4 hours incubation at 37° C., fluorescence was recorded at excitation 544 and emission 590. GI50 (Growth inhibition) was calculated using GraphPad Prism 4.0 software.

Compound | IC50 (human TTK) | GI50 (Breast cancer cells) | GI50 [1] | GI50 [2] | GI50 (TICs (Colon 12)) | GI50 (TICs (Ovarian 2393A))
CC(C)C(NC(=O)c1ccc2[nH]nc(-c3ccc(OC4CC5CCC(C4)N5C)cc3)c2c1)c1ccccn1 (stereo not drawn) [Example A395, N-(2-methyl-1-(pyridin-2-yl)propyl)-3-(4-((8-methyl-8-azabicyclo [3.2.1]octan-3-yl)oxy)phenyl)-1H-indazole-5-carboxamide] | < 100 nM | < 100 nM | < 100 nM | < 100 nM | < 100 nM | 100 to 500 nM
CN1CCC(Oc2ccc(-c3n[nH]c4ccc(C(=O)NC(c5ccccn5)C5CC5)cc34)cc2S(C)(=O)=O)CC1 (stereo not drawn) [Example A245, N-(cyclopropyl(pyridin-2-yl)methyl)-3-(4-((1-methylpiperidin-4-yl)oxy)-3-(methylsulfonyl)phenyl)-1H-indazole-5-carboxamide] | < 100 nM | > 500 nM | 100 to 500 nM | 100 to 500 nM | > 500 nM | > 500 nM
O=C(NCC1(N2CCOCC2)CCCCC1)c1ccc2[nH]nc(-c3ccc(N4CCN(CCO)CC4)cc3)c2c1 [Example A459, 3-(4-(4-(2-hydroxyethyl)piperazin-1-yl)phenyl)-N-((1-morpholinocyclohexyl)methyl)-1H-indazole-5-carboxamide] | < 100 nM | 100 to 500 nM | < 100 nM | < 100 nM | 100 to 500 nM | 100 to 500 nM
O=C(N[C@H](c1ccccn1)C1CCCC1)c1ccc2[nH]nc(-c3ccc(N4CC(C5COC5)C4)cc3)c2c1 [Example A309, (S)-N-(cyclopentyl(pyridin-2-yl)methyl)-3-(4-(3-(oxetan-3-yl)azetidin-1-yl)phenyl)-1H-indazole-5-carboxamide] | < 100 nM | < 100 nM | < 100 nM | < 100 nM | < 100 nM | < 100 nM
CN1[C@@H]2CC[C@H]1C[C@@H](Oc1ccc(-c3n[nH]c4ccc(C(=O)NC(c5ccccn5)C5CCCC5)cc34)cc1)C2 (stereo partly drawn) [Example A244, N-(cyclopentyl(pyridin-2-yl)methyl)-3-(4-(((1R,3R,5S)-8-methyl-8-azabicyclo[3.2.1]octan-3-yl)oxy)phenyl)-1H-indazole-5-carboxamide] | < 100 nM | 100 to 500 nM | < 100 nM | < 100 nM | 100 to 500 nM | 100 to 500 nM
O=C(N[C@H](c1ccccn1)C1CCCC1)c1ccc2[nH]nc(-c3ccc(N4C5CCC4CC(O)C5)cc3)c2c1 (stereo partly drawn) [Example A360, N-((S)-cyclopentyl(pyridin-2-yl)methyl)-3-(4-((1R,3S,5S)-3-hydroxy-8-azabicyclo[3.2.1]octan-8-yl)phenyl)-1H-indazole-5-carboxamide] | < 100 nM | < 100 nM | < 100 nM | < 100 nM | < 100 nM | < 100 nM
CC(C)C(NC(=O)c1ccc2[nH]nc(-c3ccc(O[C@H]4C[C@H]5CC[C@@H](C4)N5C4COC4)cc3)c2c1)c1ccccn1 (stereo partly drawn) [Example A325, N-(2-methyl-1-(pyridin-2-yl)propyl)-3-(4-(((1R,3R,5S)-8-(oxetan-3-yl)-8-azabicyclo[3.2.1]octan-3-yl)oxy)phenyl)-1H-indazole-5-carboxamide] | < 100 nM | 100 to 500 nM | 100 to 500 nM | 100 to 500 nM | < 100 nM | 100 to 500 nM
O=C(N[C@@H](c1ccccc1F)C1CC1)c1ccc2[nH]nc(-c3ccc(N4C5CCC4CC(O)C5)cc3)c2c1 (stereo partly drawn) [Example A266, N-((R)-cyclopropyl(2-fluorophenyl)methyl)-3-(4-((1R,3R,5S)-3-hydroxy-8-azabicyclo[3.2.1]octan-8-yl)phenyl)-1H-indazole-5-carboxamide] | < 100 nM | < 100 nM | < 100 nM | < 100 nM | < 100 nM | < 100 nM
CN1[C@@H]2CC[C@H]1C[C@@H](Oc1ccc(-c3n[nH]c4ccc(C(=O)NCC5(c6ccccc6)CCOCC5)cc34)cc1)C2 [Example A484, 3-(4-(((1R,3R,5S)-8-methyl-8-azabicyclo[3.2.1]octan-3-yl)oxy)phenyl)-N-((4-phenyltetrahydro-2H-pyran-4-yl)methyl)-1H-indazole-5-carboxamide] | < 100 nM | 100 to 500 nM | < 100 nM | < 100 nM | 100 to 500 nM | 100 to 500 nM
CN1CCC(Oc2ccc(-c3n[nH]c4ccc(C(=O)NC(c5ccccc5)C5CC5)cc34)cc2S(C)(=O)=O)CC1 (stereo not drawn) [Example A246, N-(cyclopropyl(phenyl)methyl)-3-(4-((1-methylpiperidin-4-yl)oxy)-3-(methylsulfonyl)phenyl)-1H-indazole-5-carboxamide] | < 100 nM | > 500 nM | 100 to 500 nM | < 100 nM | > 500 nM | > 500 nM
O=C(NC(c1ccccc1)C1CC1)c1ccc2[nH]nc(-c3ccc(O[C@H]4C[C@H]5CC[C@@H](C4)N5C4COC4)cc3)c2c1 (stereo partly drawn) [Example A321, N-(cyclopropyl(phenyl)methyl)-3-(4-(((1R,3R,5S)-8-(oxetan-3-yl)-8-azabicyclo[3.2.1]octan-3-yl)oxy)phenyl)-1H-indazole-5-carboxamide] | < 100 nM | 100 to 500 nM | 100 to 500 nM | 100 to 500 nM | < 100 nM | 100 to 500 nM
CC(C)C[C@H](NC(=O)c1ccc2[nH]nc(-c3ccc(N4CC(N5CCOCC5)C4)cc3)c2c1)c1ccccc1Cl [Example A315, (S)-N-(1-(2-chlorophenyl)-3-methylbutyl)-3-(4-(3-morpholinoazetidin-1-yl)phenyl)-1H-indazole-5-carboxamide] | < 100 nM | 100 to 500 nM | < 100 nM | < 100 nM | < 100 nM | 100 to 500 nM
CC(C)C(NC(=O)c1ccc2[nH]nc(-c3ccc(O[C@H]4C[C@H]5CC[C@@H](C4)N5C)cc3)c2c1)c1ccccc1Cl (stereo partly drawn) [Example A279, N-(1-(2-chlorophenyl)-2-methylpropyl)-3-(4-(((1R,3R,5S)-8-methyl-8-azabicyclo[3.2.1]octan-3-yl)oxy)phenyl)-1H-indazole-5-carboxamide] | < 100 nM | < 100 nM | < 100 nM | < 100 nM | 100 to 500 nM | 100 to 500 nM
CN1CCC(Oc2ccc(-c3n[nH]c4ccc(C(=O)N[C@@H](c5ccccn5)C5CC5)cc34)cc2Cl)CC1 [Example A386, (R)-3-(3-chloro-4-((1-methylpiperidin-4-yl)oxy)phenyl)-N-(cyclopropyl(pyridin-2-yl)methyl)-1H-indazole-5-carboxamide] | < 100 nM | > 500 nM | 100 to 500 nM | 100 to 500 nM | 100 to 500 nM | > 500 nM
CC(C)C[C@H](NC(=O)c1ccc2[nH]nc(-c3ccc(N4C5CCC4CC(O)C5)cc3)c2c1)c1ccccc1 (stereo partly drawn) [Example A368, 3-(4-((1R,3S,5S)-3-hydroxy-8-azabicyclo[3.2.1]octan-8-yl)phenyl)-N-((S)-3-methyl-1-phenylbutyl)-1H-indazole-5-carboxamide] | < 100 nM | 100 to 500 nM | < 100 nM | < 100 nM | < 100 nM | 100 to 500 nM
CC(C)[C@H](NC(=O)c1ccc2[nH]nc(-c3ccc(N4CC(C5COC5)C4)cc3)c2c1)c1ccccc1Cl [Example A310, (S)-N-(1-(2-chlorophenyl)-2-methylpropyl)-3-(4-(3-(oxetan-3-yl)azetidin-1-yl)phenyl)-1H-indazole-5-carboxamide] | < 100 nM | < 100 nM | < 100 nM | < 100 nM | < 100 nM | < 100 nM
O=C(N[C@H](c1ccccc1)C1CC1)c1ccc2[nH]nc(-c3ccc(N4C5CCC4CC(O)C5)cc3)c2c1 (stereo partly drawn) [Example A362, N-((S)-cyclopropyl(phenyl)methyl)-3-(4-((1R,3S,5S)-3-hydroxy-8-azabicyclo[3.2.1]octan-8-yl)phenyl)-1H-indazole-5-carboxamide] | < 100 nM | < 100 nM | < 100 nM | < 100 nM | < 100 nM | < 100 nM
